Test results from paper PMC8421423, “Cellular model system to dissect the isoform-selectivity of Akt inhibitors” (Nature Communications, 2021).
Several values for one entry are separate records, joined by “and”; a condition that tells them apart may be missing. Equal entries are not always repeated. Where two headings read alike, the source gives them in different places.

Tests used:
[1] = CellTiter-Glo cell viability assay; type: cell-based, murine; conditions: mouse, parental Ba/F3 cells, CTG, parental, single replicates
Description: (§1) On day 0, cells were plated into white 384-well cell culture plates (Greiner Bio-One) using a Multidrop reagent dispenser (Thermo Fisher Scientific) at cell numbers that ensure linear and optimal luminescent signal intensity (Ba/F3myr-Akt1: 600 cells/well, Ba/F3myr-Akt2: 800 cells/well, Ba/F3myr-Akt3: 800 cells/well). […] Cell viability was analyzed on day 4 using the CellTiter-Glo Assay (Promega) as per the manufacturer’s instructions. […] All experimental points were measured in duplicates for each plate and were replicated in at least three plates.

parental Ba/F3 cells = test: CellTiter-Glo cell viability assay; type: cell-based, murine; conditions: for cell viability: CTG, parental
Description: as §1

pAkt2 = test: Western blot analysis, PANC1 cells; type: cell-based, human; conditions: PANC1, 24-h treatment
Description: Cells were seeded into six-well tissue culture plates (Sarstedt) (BaF3 myr-Akt1/2/3: 10^6 cells/well, PANC1: 250.000 cells/well). […] Cell lysis was initiated by addition of 100 μL RIPA buffer (Cell Signaling Technology) per well supplemented with phosphatase and protease inhibitor cocktails (Sigma) followed by incubation on ice for 20 min. Cells were then harvested by scraping (PANC1) or centrifugation (BaF3). Whole cell lysates were cleared by centrifugation at 14,000×g/4 °C for 10 min and transferred into fresh, pre-cooled microcentrifuge tubes. Protein concentrations were determined using the Pierce BCA protein assay (Thermo) as per manufacturer’s instructions. Equal amounts of protein were separated by SDS-PAGE and transferred to Immobilon-FL PVDF membranes (Merck Millipore) using Pierce™ 1-step transfer buffer (Thermo) and the Pierce™ Power Blotter (Thermo). Membranes were washed for 5 min with ddH2O, blocked with Intercept®Blocking Buffer TBS (Li-Cor) for 1 h at room temperature, and then incubated with primary antibodies diluted in Intercept®Blocking Buffer TBS overnight at 4 °C with gentle agitation. On the next day, the membranes were washed three times with TBS-T (50 mM Tris, 150 mM NaCl, 0.05 % Tween 20, pH 7.4) for 5 min before being incubated with secondary antibodies diluted in Intercept®Blocking Buffer TBS for 1 h at room temperature with gentle agitation. Finally, the membranes were washed three times for 5 min with TBS-T and then scanned using an Odyssey®CLx imaging system (Li-Cor).

Akt1 [2] = target: T1, Akt1 (Homo sapiens, UniProt P31749); test: Cellular thermal shift assay (CETSA) in PANC1 cells; type: cell-based; set-up: purchased ProQinase #1379-0000-2
Akt3 [3] = target: T2, Akt3 (Homo sapiens, UniProt Q9Y243); test: as above; type: cell-based; set-up: purchased ProQinase #1578-0000-1
Ba/F3^myr-Akt1 cells = test: CellTiter-Glo cell viability assay; conditions: for cell viability: CTG
Description: as §1

Ba/F3^myr-Akt2 cells = test: CellTiter-Glo cell viability assay; conditions: for cell viability: CTG
Ba/F3^myr-Akt3 cells = test: CellTiter-Glo cell viability assay; conditions: for cell viability: CTG
Akt2 [4] = target: T3, Akt2 (Homo sapiens, UniProt P31751); test: Cellular thermal shift assay (CETSA) in PANC1 cells; type: cell-based; set-up: purchased Thermo Fisher Scientific #PV3184
Akt1 [5] = target: T1, Akt1; test: STK HTRF KinEASE activity-based assay (IC50)
Akt2 [6] = target: T3, Akt2; test: STK HTRF KinEASE activity-based assay (IC50)
Akt3 [7] = target: T2, Akt3; test: STK HTRF KinEASE activity-based assay (IC50)
Description: The biochemical half maximal inhibitory concentrations (IC50) were determined with the STK HTRF KinEASE assay (Cisbio) according to the manufactor’s instructions. Briefly: 5 µL Kinase solution and 2.5 µL inhibitor solution (8% DMSO in HTRF buffer) were incubated for 1 h before the reaction was started by addition of 2.5 µL starting solution containing ATP and substrate peptide. […] After reaction completion (Akt1: 60 min, Akt2: 20 min, Akt3: 15 min), 10 µL of stop solution were added. […] The quotient of both intensities were recorded at eight different inhibitor concentrations and data fit to a Hill 4-parameter equation with Quattro software suite (Quattro Research GmbH, Martinsried, Germany). Each reaction was performed in duplicates and at least three independent determinations of each IC50 were made.

[8] = CETSA PANC1, 1 µM, temperature 39.9
[9] = CETSA PANC1, 1 µM, temperature 43.5
[10] = CETSA PANC1, 1 µM, temperature 48.4
[11] = CETSA PANC1, 1 µM, temperature 53.8
[12] = CETSA PANC1, 1 µM, temperature 58.1
[13] = CETSA PANC1, 1 µM, temperature 61.4
[14] = CETSA PANC1, 1 µM, temperature 65.6
[15] = CETSA PANC1, 1 µM, temperature 70.9
[16] = CETSA PANC1, 1 µM, temperature 76
[17] = CETSA PANC1, 1 µM, temperature 79.9
[18] = CETSA PANC1, 2.5 µM, temperature 39.9
[19] = CETSA PANC1, 2.5 µM, temperature 43.5
[20] = CETSA PANC1, 2.5 µM, temperature 48.4
[21] = CETSA PANC1, 2.5 µM, temperature 53.8
[22] = CETSA PANC1, 2.5 µM, temperature 58.1
[23] = CETSA PANC1, 2.5 µM, temperature 61.4
[24] = CETSA PANC1, 2.5 µM, temperature 65.6
[25] = CETSA PANC1, 2.5 µM, temperature 70.9
[26] = CETSA PANC1, 2.5 µM, temperature 76
[27] = CETSA PANC1, 2.5 µM, temperature 79.9
[28] = cell viability assay Ba/F3 myr-Akt cells, log units

T1 sequence (P31749 whole entry): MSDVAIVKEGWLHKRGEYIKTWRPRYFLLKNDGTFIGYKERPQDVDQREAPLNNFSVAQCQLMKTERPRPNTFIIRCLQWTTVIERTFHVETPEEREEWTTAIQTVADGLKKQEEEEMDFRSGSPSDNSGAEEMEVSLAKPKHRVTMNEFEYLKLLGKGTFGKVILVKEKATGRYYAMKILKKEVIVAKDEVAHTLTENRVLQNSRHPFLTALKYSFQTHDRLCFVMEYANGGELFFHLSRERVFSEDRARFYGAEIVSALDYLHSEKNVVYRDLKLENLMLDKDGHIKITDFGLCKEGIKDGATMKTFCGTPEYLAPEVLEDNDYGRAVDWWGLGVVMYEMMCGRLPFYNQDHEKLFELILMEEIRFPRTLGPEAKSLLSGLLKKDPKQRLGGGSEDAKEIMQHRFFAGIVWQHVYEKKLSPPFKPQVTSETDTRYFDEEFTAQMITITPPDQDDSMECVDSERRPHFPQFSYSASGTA
T2 sequence (Q9Y243 whole entry): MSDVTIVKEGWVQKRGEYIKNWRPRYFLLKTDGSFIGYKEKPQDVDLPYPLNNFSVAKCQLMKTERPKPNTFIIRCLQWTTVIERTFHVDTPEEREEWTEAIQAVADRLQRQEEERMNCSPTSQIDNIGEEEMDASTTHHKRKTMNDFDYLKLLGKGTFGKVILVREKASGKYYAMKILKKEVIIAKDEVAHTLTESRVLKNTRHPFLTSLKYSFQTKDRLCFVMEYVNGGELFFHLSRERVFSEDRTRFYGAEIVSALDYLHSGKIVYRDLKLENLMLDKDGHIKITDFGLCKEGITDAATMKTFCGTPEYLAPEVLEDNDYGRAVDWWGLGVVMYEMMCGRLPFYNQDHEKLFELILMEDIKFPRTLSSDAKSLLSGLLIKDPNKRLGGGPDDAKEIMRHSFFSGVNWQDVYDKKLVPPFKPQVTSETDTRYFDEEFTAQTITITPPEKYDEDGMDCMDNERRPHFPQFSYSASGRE
T3 sequence (P31751 whole entry): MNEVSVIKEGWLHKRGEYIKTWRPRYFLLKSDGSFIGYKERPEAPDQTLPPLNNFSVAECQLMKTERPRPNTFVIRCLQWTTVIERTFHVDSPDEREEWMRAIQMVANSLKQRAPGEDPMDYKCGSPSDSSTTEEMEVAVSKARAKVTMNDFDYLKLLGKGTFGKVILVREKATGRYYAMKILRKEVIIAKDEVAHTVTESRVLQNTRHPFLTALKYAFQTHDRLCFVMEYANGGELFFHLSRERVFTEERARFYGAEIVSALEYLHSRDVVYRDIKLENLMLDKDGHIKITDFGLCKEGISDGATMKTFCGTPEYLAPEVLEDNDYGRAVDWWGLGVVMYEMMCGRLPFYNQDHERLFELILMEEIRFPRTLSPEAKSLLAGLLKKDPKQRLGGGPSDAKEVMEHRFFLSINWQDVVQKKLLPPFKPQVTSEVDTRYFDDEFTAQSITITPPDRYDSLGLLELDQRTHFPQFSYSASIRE

tAkt1 % (Akt1 [2]; [8]): 100.00%
tAkt1 % (Akt1 [2]; [9]): 45.86%
tAkt1 % (Akt1 [2]; [10]): 43.98%
tAkt1 % (Akt1 [2]; [11]): 34.21%
tAkt1 % (Akt1 [2]; [12]): 23.05%
tAkt1 % (Akt1 [2]; [13]): 19.70%
tAkt1 % (Akt1 [2]; [14]): 13.05%
tAkt1 % (Akt1 [2]; [15]): 3.12%
tAkt1 % (Akt1 [2]; [16]): 1.54%
tAkt1 % (Akt1 [2]; [17]): 0.00%
tAkt1 % (Akt1 [2]; [18]): 100.00%
tAkt1 % (Akt1 [2]; [19]): 55.35%
tAkt1 % (Akt1 [2]; [20]): 36.29%
tAkt1 % (Akt1 [2]; [21]): 40.13%
tAkt1 % (Akt1 [2]; [22]): 29.31%
tAkt1 % (Akt1 [2]; [23]): 31.38%
tAkt1 % (Akt1 [2]; [24]): 3.90%
tAkt1 % (Akt1 [2]; [25]): -1.89%
tAkt1 % (Akt1 [2]; [26]): 0.94%
tAkt1 % (Akt1 [2]; [27]): 0.00%
tAkt3 % (Akt3 [3]; [8]): 100.00%
tAkt3 % (Akt3 [3]; [9]): 71.95%
tAkt3 % (Akt3 [3]; [10]): 46.73%
tAkt3 % (Akt3 [3]; [11]): 49.56%
tAkt3 % (Akt3 [3]; [12]): 48.14%
tAkt3 % (Akt3 [3]; [13]): 35.11%
tAkt3 % (Akt3 [3]; [14]): 25.19%
tAkt3 % (Akt3 [3]; [15]): 2.44%
tAkt3 % (Akt3 [3]; [16]): 2.83%
tAkt3 % (Akt3 [3]; [17]): 0.00%
tAkt3 % (Akt3 [3]; [18]): 100.00%
tAkt3 % (Akt3 [3]; [19]): 103.86%
tAkt3 % (Akt3 [3]; [20]): 83.57%
tAkt3 % (Akt3 [3]; [21]): 72.46%
tAkt3 % (Akt3 [3]; [22]): 73.91%
tAkt3 % (Akt3 [3]; [23]): 50.24%
tAkt3 % (Akt3 [3]; [24]): 22.85%
tAkt3 % (Akt3 [3]; [25]): 8.02%
tAkt3 % (Akt3 [3]; [26]): 2.05%
tAkt3 % (Akt3 [3]; [27]): 0.00%
thermal stabilization of Akt3 (CETSA, in words) (Akt3 [3]; PANC1, 1 µM): slight stabilization of Akt3
EC50 (Ba/F3^myr-Akt1 cells; Mus musculus, read-out: CTG BaF3myr-Akt1, Mean, mean of replicates): 9480 nM
EC50 (Ba/F3^myr-Akt1 cells; Mus musculus, read-out: CTG BaF3myr-Akt1, individual determinations, single replicates): 10000 nM
EC50 (Ba/F3^myr-Akt1 cells; read-out: CTG BaF3myr-Akt1, individual determinations, single replicates): 9200 nM and 9240 nM
EC50 (Ba/F3^myr-Akt2 cells; Mus musculus, read-out: CTG BaF3myr-Akt2, Mean, mean of replicates): 4090 nM
EC50 (Ba/F3^myr-Akt2 cells; Mus musculus, read-out: CTG BaF3myr-Akt2, individual determinations, single replicates): 2950 nM
EC50 (Ba/F3^myr-Akt2 cells; read-out: CTG BaF3myr-Akt2, individual determinations, single replicates): 4700 nM and 4620 nM
EC50 (Ba/F3^myr-Akt3 cells; Mus musculus, read-out: CTG BaF3myr-Akt3, Mean, mean of replicates): 5050 nM
EC50 (Ba/F3^myr-Akt3 cells; Mus musculus, read-out: CTG BaF3myr-Akt3, individual determinations, single replicates): 5100 nM
EC50 (Ba/F3^myr-Akt3 cells; read-out: CTG BaF3myr-Akt3, individual determinations, single replicates): 4070 nM and 5520 nM
tAkt2 % (Akt2 [4]; [8]): 100.00%
tAkt2 % (Akt2 [4]; [9]): 81.90%
tAkt2 % (Akt2 [4]; [10]): 58.55%
tAkt2 % (Akt2 [4]; [11]): 58.55%
tAkt2 % (Akt2 [4]; [12]): 42.44%
tAkt2 % (Akt2 [4]; [13]): 52.13%
tAkt2 % (Akt2 [4]; [14]): 35.55%
tAkt2 % (Akt2 [4]; [15]): 6.07%
tAkt2 % (Akt2 [4]; [16]): 11.50%
tAkt2 % (Akt2 [4]; [17]): 0.00%
tAkt2 % (Akt2 [4]; [18]): 100.00%
tAkt2 % (Akt2 [4]; [19]): 97.05%
tAkt2 % (Akt2 [4]; [20]): 85.02%
tAkt2 % (Akt2 [4]; [21]): 75.94%
tAkt2 % (Akt2 [4]; [22]): 76.89%
tAkt2 % (Akt2 [4]; [23]): 28.89%
tAkt2 % (Akt2 [4]; [24]): 35.73%
tAkt2 % (Akt2 [4]; [25]): 24.29%
tAkt2 % (Akt2 [4]; [26]): 12.62%
tAkt2 % (Akt2 [4]; [27]): 0.00%
IC50 (Akt1 [5]; HTRF IC50 Akt1, Mean, mean of replicates): 1630 nM
IC50 (Akt1 [5]; HTRF IC50 Akt1, individual determinations, single replicates): 1630 nM and 1810 nM and 1450 nM
IC50 (Akt1 [5]; IC50 Akt1, HTRF, ATP at KM, 1 h preincubation): 1630 ± 148 nM
Log ratio IC50 [Akt] / IC50 [Akt], Akt1 / Akt2 (Akt1 [5]; biochemical activity based assay, log units): 0.97
IC50 (Akt2 [6]; HTRF IC50 Akt2, Mean, mean of replicates): 175 nM
IC50 (Akt2 [6]; HTRF IC50 Akt2, individual determinations, single replicates): 177 nM and 317 nM and 174 nM
IC50 (Akt2 [6]; IC50 Akt2, HTRF, ATP at KM, 1 h preincubation): 175 ± 2 nM
IC50 (Akt3 [7]; HTRF IC50 Akt3, individual determinations, single replicates): 144 nM and 176 nM and 240 nM and 188 nM
IC50 (Akt3 [7]; IC50 Akt3, HTRF, ATP at KM, 1 h preincubation): 187 ± 40 nM
SMILES: C=CC(=O)Nc1ccc2[nH]c(=O)n(C3CCN(Cc4ccc(-c5ncc(Cc6ccc(N)nc6)cc5-c5ccccc5)cc4)CC3)c2c1 [compound 20]
viability at 3 days, 0.0001 µM ([1]; 0.1 nM, read-out: cell viability): 104%
viability at 3 days, 5 µM ([1]; 5000 nM): 83.7%
cell viability (parental Ba/F3 cells; 0.1 nM, single replicates, 0.0001 µM): 98.4 % of control and 93.0 % of control
cell viability (parental Ba/F3 cells; 5000 nM, single replicates, 5 µM): 87.1 % of control and 85.4 % of control
EC50 (parental Ba/F3 cells; Mus musculus, BaF3, parental cells, mean of replicates, read-out: CTG BaF3, Mean): 12100 nM
EC50 (parental Ba/F3 cells; Mus musculus, BaF3, parental cells, single replicates, read-out: CTG BaF3, individual determinations): 9750 nM
EC50 (parental Ba/F3 cells; parental cells, single replicates, read-out: CTG BaF3, individual determinations): 9720 nM and 18600 nM
pAkt2 level (immunoblot) (pAkt2): moderate downregulation of pAkt2
thermal stabilization of Akt3 (CETSA, in words) (Akt3 [3]; PANC1, 2.5 µM): significant stabilization of Akt2 and Akt3
cell viability (Ba/F3^myr-Akt1 cells; myr-Akt1, 0.1 nM, single replicates, 0.0001 µM): 108.0 % of control and 90.0 % of control
cell viability (Ba/F3^myr-Akt1 cells; myr-Akt1, 5000 nM, single replicates, 5 µM): 85.6 % of control and 91.8 % of control
viability at 0.0001 µM (Ba/F3^myr-Akt1 cells; Mus musculus, read-out: cell viability, CTG, myr-Akt1, 0.1 nM, single replicates): 102%
viability at 5 µM (Ba/F3^myr-Akt1 cells; Mus musculus, read-out: cell viability, CTG, myr-Akt1, 5000 nM, single replicates): 73.6%
Log ratio EC50 [Akt] / EC50 [Akt], Akt1 / Akt2 (Ba/F3^myr-Akt1 cells; [28]): 0.27
cell viability (Ba/F3^myr-Akt2 cells; myr-Akt2, 0.1 nM, single replicates, 0.0001 µM): 92.3 % of control and 98.1 % of control
cell viability (Ba/F3^myr-Akt2 cells; myr-Akt2, 5000 nM, single replicates, 5 µM): 26.9 % of control and 44.2 % of control
viability at 0.0001 µM (Ba/F3^myr-Akt2 cells; Mus musculus, read-out: cell viability, CTG, myr-Akt2, 0.1 nM, single replicates): 105%
viability at 5 µM (Ba/F3^myr-Akt2 cells; Mus musculus, read-out: cell viability, CTG, myr-Akt2, 5000 nM, single replicates): 25.6%
cell viability (Ba/F3^myr-Akt3 cells; myr-Akt3, 0.1 nM, single replicates, 0.0001 µM): 100.1 % of control and 113.6 % of control and 88.4 % of control
cell viability (Ba/F3^myr-Akt3 cells; myr-Akt3, 5000 nM, single replicates, 5 µM): 49.5 % of control and 56.5 % of control and 73.0 % of control
Log ratio EC50 [Akt] / EC50 [Akt], Akt3 / Akt2 (Ba/F3^myr-Akt3 cells; [28]): -0.09
thermal stabilization of Akt2 (CETSA, in words) (Akt2 [4]; PANC1, 2.5 µM): significant stabilization of Akt2 and Akt3
